Laboratory results taken from ChEMBL document CHEMBL3813672, “Discovery of anti-cancer activity for benzo[1,2,4]triazin-7-ones: Very strong correlation to pleurotin and thioredoxin reductase inhibition” (Bioorg Med Chem, 2016).

Legend:
[1] = Growth inhibition of human OVCAR4 cells assessed as cell growth at 10 uM incubated for 48 hrs by sulforhodamine B assay relative to control; type: functional; conditions: OVCAR-4, 48 h, read-out: Activity
CCRF-CEM = assay: Growth inhibition of human CCRF-CEM cells assessed as cell growth at 10 uM incubated for 48 hrs by sulforhodamine B assay relative to control; type: functional; conditions: read-out: Activity
M14 = assay: Growth inhibition of human M14 cells assessed as cell growth at 10 uM incubated for 48 hrs by sulforhodamine B assay relative to control; type: functional; conditions: M14, 48 h, read-out: Activity
[2] = Growth inhibition of human Hs 578T cells assessed as cell growth at 10 uM incubated for 48 hrs by sulforhodamine B assay relative to control; type: functional; conditions: read-out: Activity
KM12 = assay: Growth inhibition of human KM12 cells assessed as cell growth at 10 uM incubated for 48 hrs by sulforhodamine B assay relative to control; type: functional; conditions: KM12, 48 h, read-out: Activity
[3] = Growth inhibition of human PC3 cells assessed as cell growth at 10 uM incubated for 48 hrs by sulforhodamine B assay relative to control; type: functional; conditions: PC-3, 48 h, read-out: Activity
[4] = Growth inhibition of human DU145 cells assessed as cell growth at 10 uM incubated for 48 hrs by sulforhodamine B assay relative to control; type: functional; conditions: DU-145, 48 h, read-out: Activity
[5] = Growth inhibition of human OVCAR3 cells assessed as cell growth at 10 uM incubated for 48 hrs by sulforhodamine B assay relative to control; type: functional; conditions: OVCAR-3, 48 h, read-out: Activity
HT-29 = assay: Growth inhibition of human HT-29 cells assessed as cell growth at 10 uM incubated for 48 hrs by sulforhodamine B assay relative to control; type: functional; conditions: HT-29, 48 h, read-out: Activity
T47D = assay: Growth inhibition of human T47D cells assessed as cell growth at 10 uM incubated for 48 hrs by sulforhodamine B assay relative to control; type: functional; conditions: read-out: Activity
NCI-H460 = assay: Growth inhibition of human NCI-H460 cells assessed as cell growth at 10 uM incubated for 48 hrs by sulforhodamine B assay relative to control; type: functional; conditions: NCI-H460, 48 h, read-out: Activity
MDA-MB-435 = assay: Growth inhibition of human MDA-MB-435 cells assessed as cell growth at 10 uM incubated for 48 hrs by sulforhodamine B assay relative to control; type: functional; conditions: MDA-MB-435, 48 h, read-out: Activity
[6] = Growth inhibition of human UO31 cells assessed as cell growth at 10 uM incubated for 48 hrs by sulforhodamine B assay relative to control; type: functional; conditions: UO-31, 48 h, read-out: Activity
[7] = Growth inhibition of human SF295 cells assessed as cell growth at 10 uM incubated for 48 hrs by sulforhodamine B assay relative to control; type: functional; conditions: SF-295, 48 h, read-out: Activity
[8] = Growth inhibition of human Caki1 cells assessed as cell growth at 10 uM incubated for 48 hrs by sulforhodamine B assay relative to control; type: functional; conditions: CAKI-1, 48 h, read-out: Activity
[9] = Growth inhibition of human HOP62 cells assessed as cell growth at 10 uM incubated for 48 hrs by sulforhodamine B assay relative to control; type: functional; conditions: HOP-62, 48 h, read-out: Activity
SN12C = assay: Growth inhibition of human SN12C cells assessed as cell growth at 10 uM incubated for 48 hrs by sulforhodamine B assay relative to control; type: functional; conditions: read-out: Activity
NCI-H23 = assay: Growth inhibition of human NCI-H23 cells assessed as cell growth at 10 uM incubated for 48 hrs by sulforhodamine B assay relative to control; type: functional; conditions: NCI-H23, 48 h, read-out: Activity
[10] = Growth inhibition of human HCT116 cells assessed as cell growth at 10 uM incubated for 48 hrs by sulforhodamine B assay relative to control; type: functional; conditions: HCT-116, 48 h, read-out: Activity
[11] = Growth inhibition of human HCT15 cells assessed as cell growth at 10 uM incubated for 48 hrs by sulforhodamine B assay relative to control; type: functional; conditions: HCT-15, 48 h, read-out: Activity
Malme-3M = assay: Growth inhibition of human MALME-3M cells assessed as cell growth at 10 uM incubated for 48 hrs by sulforhodamine B assay relative to control; type: functional; conditions: read-out: Activity
MDA-MB-231 = assay: Growth inhibition of human MDA-MB-231/ATCC cells assessed as cell growth at 10 uM incubated for 48 hrs by sulforhodamine B assay relative to control; type: functional; conditions: MDA-MB-231, 48 h, read-out: Activity
MCF7 = assay: Cytotoxicity against human MCF7 cells assessed as reduction in cell viability after 72 hrs by MTT assay; type: functional, cell-based; conditions: MCF7, 72 h
[12] = Quasi-reversible one electron redox potential in dichloromethane containing 0.1 M TBAP assessed as redox potential during 0/-1 redox transition at 2 mmol measured at 100 mV/s in presence of Fc/Fc by cyclic voltammetry; type: physicochemical
NCI/ADR-RES = assay: Growth inhibition of human NCI/ADR-RES cells assessed as cell growth at 10 uM incubated for 48 hrs by sulforhodamine B assay relative to control; type: functional; conditions: read-out: Activity
NCI-H226 = assay: Growth inhibition of human NCI-H226 cells assessed as cell growth at 10 uM incubated for 48 hrs by sulforhodamine B assay relative to control; type: functional; conditions: NCI-H226, 48 h, read-out: Activity
NCI-H322M = assay: Growth inhibition of human NCI-H322M cells assessed as cell growth at 10 uM incubated for 48 hrs by sulforhodamine B assay relative to control; type: functional; conditions: read-out: Activity
[13] = Growth inhibition of human RPMI8226 cells assessed as cell growth at 10 uM incubated for 48 hrs by sulforhodamine B assay relative to control; type: functional; conditions: RPMI-8226, 48 h, read-out: Activity
NCI-H522 = assay: Growth inhibition of human NCI-H522 cells assessed as cell growth at 10 uM incubated for 48 hrs by sulforhodamine B assay relative to control; type: functional; conditions: NCI-H522, 48 h, read-out: Activity
[14] = Growth inhibition of human UACC62 cells assessed as cell growth at 10 uM incubated for 48 hrs by sulforhodamine B assay relative to control; type: functional; conditions: UACC-62, 48 h, read-out: Activity
MDA-MB-468 = assay: Growth inhibition of human MDA-MB-468 cells assessed as cell growth at 10 uM incubated for 48 hrs by sulforhodamine B assay relative to control; type: functional; conditions: MDA-MB-468, 48 h, read-out: Activity
U-251 = assay: Growth inhibition of human U251 cells assessed as cell growth at 10 uM incubated for 48 hrs by sulforhodamine B assay relative to control; type: functional; conditions: U-251, 48 h, read-out: Activity
[15] = Cytotoxicity against human DU145 cells assessed as reduction in cell viability after 72 hrs by MTT assay; type: functional, cell-based; conditions: DU-145, 72 h
A498 = assay: Growth inhibition of human A498 cells assessed as cell growth at 10 uM incubated for 48 hrs by sulforhodamine B assay relative to control; type: functional; conditions: A498, 48 h, read-out: Activity
SR = assay: Growth inhibition of human SR cells assessed as cell growth at 10 uM incubated for 48 hrs by sulforhodamine B assay relative to control; type: functional; conditions: read-out: Activity

Compound `O=c1ccc2nc(-c3ccccc3)nn(-c3ccccc3)c-2c1` has a growth at 10 µM [1] of -40.6%, a growth at 10 µM (CCRF-CEM) of -16.4% and a growth at 10 µM (M14) of 51.2%. For the same compound, the growth at 10 µM [2] was 75.9%, the growth at 10 µM (KM12) was 63.1% and the growth at 10 µM [3] was 43.5%. The growth at 10 µM [4] was -95.5%, the growth at 10 µM [5] was -96.2% and the growth at 10 µM (HT-29) was -53.5%. For the same compound, the growth at 10 µM (T47D) was -36.5%, the growth at 10 µM (NCI-H460) was 61.5% and the growth at 10 µM (MDA-MB-435) was 24.6%. It also gave a growth at 10 µM [6] of -97.5%, a growth at 10 µM [7] of 23.9% and a growth at 10 µM [8] of -90.9%. The growth at 10 µM [9] was 69.5%, the growth at 10 µM (SN12C) was 40.2% and the growth at 10 µM (NCI-H23) was 54.4%. The growth at 10 µM [10] was -90.7%, the growth at 10 µM [11] was -75.9% and the growth at 10 µM (Malme-3M) was -92.5%. The growth at 10 µM (MDA-MB-231) was 76.3%, the IC50 (MCF7) was 810 nM and the Activity [12] was -1.12 V. It also gave a growth at 10 µM (NCI/ADR-RES) of 96.2%, a growth at 10 µM (NCI-H226) of 66.1% and a growth at 10 µM (NCI-H322M) of 66.2%. It also gave a growth at 10 µM [13] of -6.53%, a growth at 10 µM (NCI-H522) of -90.5% and a growth at 10 µM [14] of 30.1%. For the same compound, the growth at 10 µM (MDA-MB-468) was -61.6%, the growth at 10 µM (U-251) was 66.2% and the IC50 [15] was 230 nM. The growth at 10 µM (A498) was 84.4% and the growth at 10 µM (SR) was -20.2%.

With `O=c1ccc2nc(C(F)(F)F)nn(-c3ccccc3)c-2c1` the growth at 10 µM [1] was 79.8%, the growth at 10 µM (CCRF-CEM) was -0.27% and the growth at 10 µM (M14) was 62.1%. For the same compound, the growth at 10 µM [2] was 74%, the growth at 10 µM (KM12) was 96.8% and the growth at 10 µM [3] was 84.5%. It also gave a growth at 10 µM [4] of 40.5%, a growth at 10 µM [5] of -26.1% and a growth at 10 µM (HT-29) of -64.3%. The growth at 10 µM (T47D) was -40.5%, the growth at 10 µM (NCI-H460) was 97.3% and the growth at 10 µM (MDA-MB-435) was 62.3%. It also gave a growth at 10 µM [6] of 24%, a growth at 10 µM [7] of 91.9% and a growth at 10 µM [8] of 56%. It also gave a growth at 10 µM [9] of 66%, a growth at 10 µM (SN12C) of 67.9% and a growth at 10 µM (NCI-H23) of 67.7%. For the same compound, the growth at 10 µM [10] was 35.2%, the growth at 10 µM [11] was -79.7% and the growth at 10 µM (Malme-3M) was -41.7%. For the same compound, the growth at 10 µM (MDA-MB-231) was 61%, the IC50 (MCF7) was 600 nM and the Activity [12] was -0.86 V. It also gave a growth at 10 µM (NCI/ADR-RES) of 84%, a growth at 10 µM (NCI-H226) of 77.7% and a growth at 10 µM (NCI-H322M) of 99.8%. For the same compound, the growth at 10 µM [13] was 45.6%, the growth at 10 µM (NCI-H522) was -56% and the growth at 10 µM [14] was 66.4%. For the same compound, the growth at 10 µM (MDA-MB-468) was -73.5%, the growth at 10 µM (U-251) was 69.7% and the IC50 [15] was 850 nM. For the same compound, the growth at 10 µM (A498) was 79.9% and the growth at 10 µM (SR) was -11.3%.
